Experimental data from patent US8735622B2, “Histone demethylase inhibitors and methods for using the same” (The Regents of the University of Colorado, a body corporate, priority 2011, dated 2014).

Molecular target: T1, human GASC1 (GST-GASC1(1-420)) (Homo sapiens, UniProt Q9H3R0)
T1 construct: corresponding to amino acid 1-420 was cloned and purified; made in house; host or cells: Escherichia coli BL-21
T1 sequence (Q9H3R0 1-420): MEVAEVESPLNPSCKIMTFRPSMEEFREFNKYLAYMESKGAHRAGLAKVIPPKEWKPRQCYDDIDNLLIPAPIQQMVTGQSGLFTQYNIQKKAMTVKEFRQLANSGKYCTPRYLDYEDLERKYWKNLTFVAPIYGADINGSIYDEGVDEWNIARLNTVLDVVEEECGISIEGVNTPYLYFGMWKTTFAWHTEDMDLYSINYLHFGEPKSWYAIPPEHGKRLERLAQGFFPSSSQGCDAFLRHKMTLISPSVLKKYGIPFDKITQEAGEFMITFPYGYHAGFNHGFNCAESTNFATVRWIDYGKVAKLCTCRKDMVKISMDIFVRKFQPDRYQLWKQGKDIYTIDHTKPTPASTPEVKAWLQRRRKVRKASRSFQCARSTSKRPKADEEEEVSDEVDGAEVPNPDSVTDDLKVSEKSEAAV
Test: GASC1 enzyme activity assay (DELFIA)
Format: biochemical
Details: in vitro
Experimental: In order to evaluate the inhibitory activity of 1 in vitro, a GST-fusion protein of the catalytic N-terminus of human GASC1 (gene amplified in squamous cell carcinoma 1) corresponding to amino acid 1-420 was cloned and purified. […] To evaluate the enzyme specificity of 1, the activity of 1 was examined against several other related enzymes in vitro.
The enzyme activity assays for GASC1 and JMJD2A were established on the DELFIA platform. DELFIA assays were performed in white, opaque 384-well plates coated with Streptavidin (Perkin Elmer). GST-GASC1(1-420) was diluted to 200 ng/well in 20 mM Tris HCl pH 8.5/2 mM glutathione and added in a volume of 20 μL. Blank wells received Tris/glutathione buffer only. Test compounds were diluted in DMSO and […] was pinned into the wells. Blank and control wells received only compound buffer. The reactions were initiated by the addition of 500 nM biotin-H3(1-20)K9me3 substrate, 10 μM FeSO4, 100 μM alpha-ketoglutarate in a volume of 20 μL, and incubated at room temperature for 60 minutes. The plates were washed 3 times with 100 μL of Wash Buffer (50 mM Tris pH 7.4, 150 mM NaCl, 0.05% Tween 20, 0.2% BSA). […] Time resolved fluorescence was measured after 45 minutes on an Envision Microplate Imager (Perkin Elmer Life Sciences) with 400 μs delay, excitation at 360 nm, and emission at 620 nm.

inhibition of enzymatic activity of GASC1: did not significantly inhibit
Structure (SMILES): COC(=O)/C=C/C(=O)N(O)CCCCNCc1ccc(COC(=O)Nc2cccc3ccccc23)cc1 [methylstat]
